The text below walks through data of US20260262647A1, “Synergistic Compositions Containing Guanidine” (Thor GmbH, priority 2023, published 2026).

What all share (type): cell-based
In assay [1] the test system is Pseudomonas spec. DSM 115322. The assay is described as follows: Minimum inhibitory concentrations and synergy index in Müller-Hinton broth. How it is done: (§1) Test organisms used were Gram-negative bacterial species from the group of pseudomonads, Pseudomonas putida DSM 115323 and Pseudomonas spec. DSM 115322. For this purpose, mixtures with different concentrations of the respective active substances were prepared and tested for their effect on the pseudomonads. The test was run in Müller-Hinton broth MHB with a cell density of 10^6 microbes per ml. When organic acids are used as a combination partner with the guanidine, MHB was adjusted to pH 5.5.
(§2) The incubation was run in microplates at 30° C. for 48 hours. After 48 hours, the batches were evaluated for turbidity resulting from growth, and optical density was additionally determined photometrically. In this way, the minimum inhibitory concentrations (MICs) of the two actives were determined individually and in combination.
(§3) The calculation was done according to the standard method of F. C. Kull et al., Applied Microbiology, vol. 9 (1961), p. 538.
(§4) This involves calculating the synergy index (SI) by the following formula:
(§5) [formula] • Qa=concentration of component A in the A+B mixture • QA=concentration of component A as the sole biocide • Qb=concentration of component B in the A+B mixture • QB=concentration of component B as the sole biocide
(§6) If the synergy index is greater than 1, this means that there is antagonism. If the synergy index assumes the value 1, this means that the effect of the two biocides/compounds is additive. If the synergy index assumes a value of less than 1, this means that there is synergism between the two biocides/compounds.

The test system of the next assay is bacteria mixture B. The assay is described as follows: Emulsion paint inoculated once with bacteria mixture B, semiquantitative growth evaluation. The arrangement: key: 0: No growth; Minimal growth, 1 to 10 colonies visible over the entire streak; 2: Light growth, maximum 100 colonies; Moderate growth, maximum 300 to 400 colonies; Uniform growth, >400 colonies, single colonies still clearly recognizable; 5: Heavy growth, too many colonies to count, but no growth over the entire streak; 6: Full growth, barely any single colonies still apparent, growth over the entire streak. To be noted: Example 35, emulsion paint, +500 ppm BIT. The text has this: In examples 35 to 38 below, synergistic interaction between guanidine and antimicrobial substances with respect to microbial infestation was studied using an emulsion paint and a laundry detergent or cleaning composition by adding particular amounts of guanidine salts and isothiazolinones and examining their stability against microbial infestation: […] The laundry detergent was a heavy-duty laundry detergent without preservatives (pH 8.1), and the cleaning composition was an all-purpose detergent without preservatives (pH 7.6), each likewise made in the laboratory, without addition of the otherwise usual conventional preservatives. To each paint was added—individually and in combination—particular concentrations of guanidinium hydrochloride, benzisothiazolinone (BIT), and a mixture of chloromethylisothiazolinone (CIT) and methylisothiazolinone (MIT). The laundry detergent and the cleaning composition were admixed with particular concentrations of guanidinium hydrochloride and benzisothiazolinone (BIT). The resultant batches of the paint thus prepared were inoculated with a mixture of different bacteria species (bacteria mixture B); the batches of the laundry detergent and cleaning compositions thus prepared were inoculated with a yeast mixture. • Pseudomonas spp. (Pseudomonas oleovorans group) DSM 33933 • Pseudomonas aeruginosa DSM 33935 • Pseudomonas oleovorans DSM 33936 • Pseudomonas spec. DSM 33937 • Pseudomonas aeruginosa DSM 33938 […] The cell suspension of the bacteria mixture was produced by growing the individual bacteria at 30° C. for 24 h in liquid culture on a shaker. The growth medium used for the bacteria was Müller-Hinton liquid medium. After growing, the individual liquid cultures were centrifuged, and the cells were resuspended in physiological saline solution. […] The cell count of the inoculum was determined in each case by chamber counting. […] The streaked agar plates were then incubated at 30° C. for 48 hours (bacteria) or at 25° C. for 72 hours (yeasts). After incubation, the bacterial or yeast colonies that have grown on the agar plates were visually evaluated and quantified according to the following scheme: [table]

For assay [2], the system named is yeast mixture. The assay is described as follows: Laundry detergent inoculated once with yeast mixture, semiquantitative growth evaluation. The arrangement: key: 0: No growth; Minimal growth, 1 to 10 colonies visible over the entire streak; 2: Light growth, maximum 100 colonies; Moderate growth, maximum 300 to 400 colonies; Uniform growth, >400 colonies, single colonies still clearly recognizable; 5: Heavy growth, too many colonies to count, but no growth over the entire streak; 6: Full growth, barely any single colonies still apparent, growth over the entire streak. To be noted: Example 37, laundry detergent, +100 ppm BIT. The text has this:
(§7) In examples 35 to 38 below, synergistic interaction between guanidine and antimicrobial substances with respect to microbial infestation was studied using an emulsion paint and a laundry detergent or cleaning composition by adding particular amounts of guanidine salts and isothiazolinones and examining their stability against microbial infestation: […] The laundry detergent was a heavy-duty laundry detergent without preservatives (pH 8.1), and the cleaning composition was an all-purpose detergent without preservatives (pH 7.6), each likewise made in the laboratory, without addition of the otherwise usual conventional preservatives. To each paint was added—individually and in combination—particular concentrations of guanidinium hydrochloride, benzisothiazolinone (BIT), and a mixture of chloromethylisothiazolinone (CIT) and methylisothiazolinone (MIT). The laundry detergent and the cleaning composition were admixed with particular concentrations of guanidinium hydrochloride and benzisothiazolinone (BIT). The resultant batches of the paint thus prepared were inoculated with a mixture of different bacteria species (bacteria mixture B); the batches of the laundry detergent and cleaning compositions thus prepared were inoculated with a yeast mixture. • Pichia manshurica DSM 12249 • Rhodotorula mucilaginosa DSM 12248 • Candida boidinii DSM 13622 • Candida albicans DSM 1386 […] Further steps for establishment of a cell count of the inoculum suspension of 10^8/ml were effected analogously to the production of the bacteria suspension. […] The streaked agar plates were then incubated at 30° C. for 48 hours (bacteria) or at 25° C. for 72 hours (yeasts). After incubation, the bacterial or yeast colonies that have grown on the agar plates were visually evaluated and quantified according to the following scheme: [table]

The test system of assay [3] is yeast mixture. Put plainly: All-purpose detergent inoculated once with yeast mixture, semiquantitative growth evaluation. The arrangement: key: 0: No growth; Minimal growth, 1 to 10 colonies visible over the entire streak; 2: Light growth, maximum 100 colonies; Moderate growth, maximum 300 to 400 colonies; Uniform growth, >400 colonies, single colonies still clearly recognizable; 5: Heavy growth, too many colonies to count, but no growth over the entire streak; 6: Full growth, barely any single colonies still apparent, growth over the entire streak. To be noted: Example 38, all-purpose detergent, +100 ppm BIT.
Excerpt: as §7

Assay [4] has as its system Pseudomonas putida DSM 115323. Put plainly: Minimum inhibitory concentrations and synergy index in Müller-Hinton broth. How it is done:
as §1, §2, §3, §4, §5, §6

The subject of the next assay is bacteria mixture A. Put plainly: Emulsion paint inoculated three times with bacteria mixture A, live bacteria count CFU/g. The conditions noted are these: for CFU/g after inoculation: emulsion paint, 7 d. From the text: In example 34, the synergistic interaction between guanidine and a zinc compound (zinc oxide) with respect to microbial infestation was examined in an emulsion paint by adding particular amounts of guanidine in the form of guanidine hydrochloride and a zinc compound in the form of zinc oxide, and tested for stability to microbial infestation. The paint tested was an emulsion paint based on styrene-acrylate binder (PVK 77%, pH 8.8) for indoor use, produced in the laboratory, without addition of the usual preservatives.
The samples were inoculated repeatedly, three times in total, with a bacterial cell suspension of the following composition (2% v/w).
• Alcaligenes faecalis NCIMB 13145 • Escherichia coli DSM 13631 • Burkholderia cepacia DSM 9241 • Staphylococcus aureus DSM 799 • Pseudomonas aeruginosa DSM 50071 • Pseudomonas putida DSM 13624
The cell suspension of the bacteria mixture A was produced by growing the individual bacteria at 30° C. for 24 h in liquid culture on a shaker. The growth medium used for the bacteria was Müller-Hinton liquid medium. After growing, the individual liquid cultures were centrifuged, and the cells were resuspended in physiological saline solution. In order to adjust the mixture to a total cell count of 10^9/ml, the individual bacteria suspensions, if necessary, were diluted accordingly before being combined with saline solution. The cell count of the inoculum was determined in each case by chamber counting.
After each inoculation and after incubation at 30° C. for 7 days, microbial infestation was evaluated in the samples by determining the live bacteria count per g of paint (colony-forming units, CFU/g). The CFU/g was determined each time by taking an aliquot (1 g) from the previously homogenized sample and running a serial decadic dilution series in physiological saline solution (0.9% NaCl) by streaking on tryptic soy agar, followed by incubation of the agar plates at 30° C. for 48 h.

As to `O=c1[nH]sc2ccccc12` [BIT, 1,2-benzisothiazolin-3-one], in assay [1] (BIT alone, 48 hours at 30° C.), the “QB: Concentration of BIT as the sole agent that shows an endpoint” value is reported as 300 ppm. In addition, the “Synergy index Qa/QA + Qb/QB” value in assay [1] (guanidine and BIT, Qa, Qb) is reported as 1.00. The Bacterial growth was 6 with bacteria mixture B (Day 1); 6 in the assay with bacteria mixture B (Day 6); 6 in the assay on yeast mixture [2] (Day 1); 4 (Uniform growth, >400 colonies, single colonies still clearly recognizable) in the assay with yeast mixture [2] (Day 3). The Yeast growth is 6 in the assay with yeast mixture [3] (Day 1) and 4 (Uniform growth, >400 colonies, single colonies still clearly recognizable) with yeast mixture [3] (Day 3).
On to `Cn1sc(Cl)cc1=O` [CIT, 5-chloro-2-methyl-4-isothiazolin-3-one], for which, in assay [4] (CIT alone, 48 hours at 30° C.), the “QB: Concentration of CIT as the sole agent that shows an endpoint” value is 3.0 ppm. In addition, the “Synergy index Qa/QA + Qb/QB” value in assay [4] (guanidine and CIT, Qa, Qb) is 1.00.
Regarding `[O]=[Zn]` [Zinc oxide, zinc oxide], the CFU/g after inoculation in the assay on bacteria mixture A (Zinc oxide 125 ppm (100 ppm Zn), 1. inoculation) was 9.4 × 10^5 CFU/g; in the assay with bacteria mixture A (Zinc oxide 125 ppm (100 ppm Zn), 2. inoculation) it was >10^6 CFU/g; in the assay with bacteria mixture A (Zinc oxide 125 ppm (100 ppm Zn), 3. inoculation) it was >10^6 CFU/g; with bacteria mixture A (Zinc oxide 250 ppm (201 ppm Zn), 1. inoculation), 2.2 × 10^4 CFU/g; in the assay on bacteria mixture A (Zinc oxide 250 ppm (201 ppm Zn), 2. inoculation), >10^6 CFU/g; in the assay on bacteria mixture A (Zinc oxide 250 ppm (201 ppm Zn), 3. inoculation), >10^6 CFU/g. The CFU/g after inoculation in the assay with bacteria mixture A (Zinc oxide 500 ppm (402 ppm Zn), 1. inoculation) is recorded as 6.6 × 10^4 CFU/g; in the assay on bacteria mixture A (Zinc oxide 500 ppm (402 ppm Zn), 2. inoculation) it was >10^6 CFU/g; in the assay with bacteria mixture A (Zinc oxide 500 ppm (402 ppm Zn), 3. inoculation), >10^6 CFU/g; in the assay with bacteria mixture A (Zinc oxide 1000 ppm (803 ppm Zn), 1. inoculation), 9.9 × 10^3 CFU/g; in the assay on bacteria mixture A (Zinc oxide 1000 ppm (803 ppm Zn), 2. inoculation), >10^6 CFU/g; in the assay on bacteria mixture A (Zinc oxide 1000 ppm (803 ppm Zn), 3. inoculation), >10^6 CFU/g. Further, the CFU/g after inoculation in the assay with bacteria mixture A (Zinc oxide 2500 ppm (2009 ppm Zn), 1. inoculation) is recorded as under 100 CFU/g; with bacteria mixture A (Zinc oxide 2500 ppm (2009 ppm Zn), 2. inoculation), under 100 CFU/g; with bacteria mixture A (Zinc oxide 2500 ppm (2009 ppm Zn), 3. inoculation), under 100 CFU/g. The “Synergy index Qa/QA + Qb/QB” value in the assay with bacteria mixture A (guanidine and zinc in emulsion paint, Qa, Qb) is listed as 1.00. For the same compound, the “QB: Concentration of zinc as the sole agent that shows an endpoint” value in the assay with bacteria mixture A (zinc (added as zinc oxide) alone in emulsion paint, endpoint after 3 inoculations up to a maximum of 1000 CFU/g) amounted to 2009 ppm.
